Article PMC10290117, “Molecular mechanism of phosphopeptide neoantigen immunogenicity” (Nature Communications, 2023)

These substances were tested on TCR27-AKD10R3 cells (assay: X-scan (peptide scan), EGFP reporter effector cells). Conditions: Fig. 1c source data, HLA B*07, T2 cells pulsed with 25 μg peptide per 1 × 10^6 cells, 2 h, 37 °C, effector cells 2:1 overnight, mean value of triplicate.
Type: cell-based, murine
Description: Tap-deficient T2 (174x CEM.T2) HLA-B*0702+ cells were received from Dr. Victor Engelhard. These and the commercially purchased Tap-deficient T2 (174 x CEM.T2) cells (ATCC CRL 1991) were maintained in RPMI 1640 (BioConcept) supplemented with 10% fetal calf serum (FCS, HyClone), 2mM L-glutamine and 1% Penicillin/Streptomycin at 37 °C and 5% CO2. The EGFP reporter cell line was based on a murine TCR negative thymoma cell line derived from strain BW5417 (ATCC®TIB-47TM) and was stably transduced with (a) TCR27 in which the human constant regions were replaced with those of mouse, (b) a chimeric mouse/human CD8, and (c) an EGFP reporter construct linked to a minimal IL-2 promoter comprising three NFAT-binding sites (3xNFAT)[44]. The transduced cells were termed TCR27-AKD10R3 cells and will be called the effector cells. Mouse cell lines were cultured in SF-IMDM (BioConcept) supplemented with 3% FCS, 1% Penicillin/Streptomycin, and 50 μM beta-mercaptoethanol at 37 °C and 10% CO2.
Peptides were dissolved in dimethyl sulfoxide (DMSO) at concentrations of 2–20 mg/mL, aliquoted and stored at −80 °C. Peptide-pulsing experiments were performed by pre-incubating T2 cells with 25 μg peptide per 1 × 10^6 cells in PBS for 2 h at 37 °C and 5% CO2, washed three times to remove unbound peptides and used for further downstream analysis. Peptide-pulsed T2 cells were incubated with effector cells in a 2:1 ratio overnight in SF-IMDM at 37 °C and 10% CO2, washed twice and stained with anti-mouse TCR-® chain clone H57-597 (BD Pharmingen #560656, 1:500) for 30 min at RT. Cells were washed twice before FACS-analysis using a BD FACS Canto II with System software v2.0. Data analysis was performed using FlowJo V10 Software. Binding affinity between each peptide and HLA-B*0702 was determined using an Alpha assay. It is a homogenous, proximity-based assay for detection of peptides binding to HLA class I molecules using a conformation-dependent anti-HLA class I antibody, W6/32, as one tag and a biotinylated recombinant HLA class I molecule as the other tag, and a proximity-based signal was generated through the luminescent oxygen channeling immunoassay technology (PerkinElmer) as described.
To identify the off-target peptides we have utilized an approach that was developed previously. In brief, we investigated which amino acids at each position in pMLL747–755 enable TCR interaction by sequentially replacing every amino acid position outside of the anchor positions 2 and 9 with all 19 alternative amino acids, resulting in 134 peptides (133 altered peptides plus original epitope). Each peptide was individually evaluated using cell-based in vitro cytotoxicity assay. To represent the TCR recognition kernel, we have defined Position Weight Matrices (PWMs) for each assay by assigning normalized measurements to each of the 20 amino acids in each position. To predict potential off-target peptides, we applied an algorithm projecting the PWM-defined kernel into the human proteome, scoring TCR27 recognition for the predicted HLA-B^*0702 binding 9-mer peptides. Of the 11 peptides with highest predicted cross-reactivity scores, we confirmed that only 2, […] and pDOT1L998–1006, strongly activated the TCR27-expressing effector T cells.

In order of rising “Percentage GFP positive from TCR+ cells” value:
1. EPRsPSKSM [single-residue substitution of pMLL747–755, Pos 7]  0.69%
2. EPRsPSDSM [single-residue substitution of pMLL747–755, Pos 7]  0.72%
3. EPRsPMHSM [single-residue substitution of pMLL747–755, Pos 6]  0.73%
4. EPRVPSHSM [single-residue substitution of pMLL747–755, Pos 4]  0.76%
5. EPRTPSHSM [single-residue substitution of pMLL747–755, Pos 4]  0.8%
6. EPRsISHSM [single-residue substitution of pMLL747–755, Pos 5]  0.81%
7. EPRsPFHSM [single-residue substitution of pMLL747–755, Pos 6]  0.82%
8. EPRsNSHSM [single-residue substitution of pMLL747–755, Pos 5]  0.84%
9. EPRsPIHSM [single-residue substitution of pMLL747–755, Pos 6]  0.85%
10. EPRsPSGSM [single-residue substitution of pMLL747–755, Pos 7]  0.85%
11. EPRYPSHSM [single-residue substitution of pMLL747–755, Pos 4]  0.87%
12. EPRsPKHSM [single-residue substitution of pMLL747–755, Pos 6]  0.87%
13. EPRsPSHWM [single-residue substitution of pMLL747–755, Pos 8]  0.87%
14. EPRsLSHSM [single-residue substitution of pMLL747–755, Pos 5]  0.88%
15. EPRsPSASM [single-residue substitution of pMLL747–755, Pos 7]  0.88%
16. EPRsPQHSM [single-residue substitution of pMLL747–755, Pos 6]  0.89%
17. EPRsKSHSM [single-residue substitution of pMLL747–755, Pos 5]  0.9%
18. EPRsFSHSM [single-residue substitution of pMLL747–755, Pos 5]  0.91%
19. EPRsASHSM [single-residue substitution of pMLL747–755, Pos 5]  0.92%
20. EPRsHSHSM [single-residue substitution of pMLL747–755, Pos 5]  0.93%
21. EPRsDSHSM [single-residue substitution of pMLL747–755, Pos 5]  0.95%
22. EPRWPSHSM [single-residue substitution of pMLL747–755, Pos 4]  0.96%
23. EPRsGSHSM [single-residue substitution of pMLL747–755, Pos 5]  0.96%
24. EPRsPLHSM [single-residue substitution of pMLL747–755, Pos 6]  0.96%
25. EPRsPPHSM [single-residue substitution of pMLL747–755, Pos 6]  0.96%
26. EPRsESHSM [single-residue substitution of pMLL747–755, Pos 5]  0.97%
27. EPRsMSHSM [single-residue substitution of pMLL747–755, Pos 5]  0.97%
28. EPRsPSCSM [single-residue substitution of pMLL747–755, Pos 7]  0.97%
29. EPRsPSFSM [single-residue substitution of pMLL747–755, Pos 7]  0.97%
30. EPRRPSHSM [single-residue substitution of pMLL747–755, Pos 4]  0.98%
31. EPRsCSHSM [single-residue substitution of pMLL747–755, Pos 5]  0.98%
32. EPRsPRHSM [single-residue substitution of pMLL747–755, Pos 6]  0.98%
33. EPRsPDHSM [single-residue substitution of pMLL747–755, Pos 6]  1.07%
34. EPRsPSHYM [single-residue substitution of pMLL747–755, Pos 8]  1.1%
35. EPRsPSESM [single-residue substitution of pMLL747–755, Pos 7]  1.15%
36. EPRsPSHFM [single-residue substitution of pMLL747–755, Pos 8]  1.28%
37. EPRsPSHRM [single-residue substitution of pMLL747–755, Pos 8]  1.29%
38. EPRsPAHSM [single-residue substitution of pMLL747–755, Pos 6]  1.34%
39. EPRsPGHSM [single-residue substitution of pMLL747–755, Pos 6]  1.34%
40. EPRsPSHGM [single-residue substitution of pMLL747–755, Pos 8]  1.39%
41. EPRsPSISM [single-residue substitution of pMLL747–755, Pos 7]  1.77%
42. EPRsPSHTM [single-residue substitution of pMLL747–755, Pos 8]  1.97%
43. EPRsPHHSM [single-residue substitution of pMLL747–755, Pos 6]  2.09%
44. EPRsPSHKM [single-residue substitution of pMLL747–755, Pos 8]  2.14%
45. EPRsPSHQM [single-residue substitution of pMLL747–755, Pos 8]  2.83%
46. EPRsPSHNM [single-residue substitution of pMLL747–755, Pos 8]  2.91%
47. EPRsPSHPM [single-residue substitution of pMLL747–755, Pos 8]  2.91%
48. EPRsPSHIM [single-residue substitution of pMLL747–755, Pos 8]  3.8%
49. EPRsPSHVM [single-residue substitution of pMLL747–755, Pos 8]  3.82%
50. EPRsPSHHM [single-residue substitution of pMLL747–755, Pos 8]  3.9%
51. EPRsPEHSM [single-residue substitution of pMLL747–755, Pos 6]  4.34%
52. EPRsPSHCM [single-residue substitution of pMLL747–755, Pos 8]  4.53%
53. EPRsPSHMM [single-residue substitution of pMLL747–755, Pos 8]  5.43%
54. EPRsPSHDM [single-residue substitution of pMLL747–755, Pos 8]  5.87%
55. EPRsPSHLM [single-residue substitution of pMLL747–755, Pos 8]  6.68%
56. EPRsPSHEM [single-residue substitution of pMLL747–755, Pos 8]  8.26%
57. EPRsPCHSM [single-residue substitution of pMLL747–755, Pos 6]  8.54%
58. EPRsPSHAM [single-residue substitution of pMLL747–755, Pos 8]  8.72%
59. EPRsPNHSM [single-residue substitution of pMLL747–755, Pos 6]  12.1%
